This series deals with T1, Oatp1b2 (Mus musculus, UniProt Q9JJL3).
T1 sequence (Q9JJL3 1-689): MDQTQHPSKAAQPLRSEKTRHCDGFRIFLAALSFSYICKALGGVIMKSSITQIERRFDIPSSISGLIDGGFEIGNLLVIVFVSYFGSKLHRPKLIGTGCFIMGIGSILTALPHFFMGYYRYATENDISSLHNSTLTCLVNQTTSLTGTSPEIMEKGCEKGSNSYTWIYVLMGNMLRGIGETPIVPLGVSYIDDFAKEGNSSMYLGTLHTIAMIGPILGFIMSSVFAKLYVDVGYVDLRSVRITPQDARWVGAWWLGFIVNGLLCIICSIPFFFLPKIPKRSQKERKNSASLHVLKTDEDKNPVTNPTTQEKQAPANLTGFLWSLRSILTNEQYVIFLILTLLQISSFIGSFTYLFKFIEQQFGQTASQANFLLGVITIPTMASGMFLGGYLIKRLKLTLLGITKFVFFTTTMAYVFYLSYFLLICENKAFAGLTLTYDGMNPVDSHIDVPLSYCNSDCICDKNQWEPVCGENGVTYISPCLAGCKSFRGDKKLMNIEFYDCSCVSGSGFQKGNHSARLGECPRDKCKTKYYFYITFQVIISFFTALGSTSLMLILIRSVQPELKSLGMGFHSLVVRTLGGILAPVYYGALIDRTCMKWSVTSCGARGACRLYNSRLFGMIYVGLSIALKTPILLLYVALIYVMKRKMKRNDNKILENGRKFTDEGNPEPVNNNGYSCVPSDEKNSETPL
The series can be described thus: Untargeted metabolomics of plasma from untreated wild-type and Oatp1b2(−/−) mice. To be noted: for Fold of Change KO/WT: plasma of untreated Oatp1b2-deficient (KO) vs wild-type (WT) mice, semi-quantitative, positive = higher in KO, n = 6 per group; for Mean value KO: plasma of untreated Oatp1b2-deficient mice; for Mean value KO / Mean value WT: raw area counts rescaled to median = 1; for Mean value WT: plasma of untreated wild-type mice.

Where a name gives a salt, the structure may show the parent alone.

Data on 39 molecules can be found in PMC9502272, “A Metabolomics Approach for Predicting OATP1B-Type Transporter-Mediated Drug–Drug Interaction Liabilities” (Pharmaceutics, 2022).

Description: For all experiments, age- and sex-matched mice (8–12 weeks old) were used. […] Mice with a deficiency of Oatp1b2 (Oatp1b2(−/−) mice), the single murine orthologue of OATP1B1 and OATP1B3 in humans, on a DBA/1LacJ background were kindly provided by Drs. Richard B. Kim (Western University, London, Ontario, Canada) and Jeffrey L. Stock (Pfizer, Groton, CT, USA).
Plasma samples from untreated wild-type mice and Oatp1b2(−/−) mice were analyzed for structurally named and unknown molecules using a non-targeted semi-quantitative liquid chromatography-tandem mass spectrometry (LC-MS/MS) and gas chromatography-mass spectrometry platforms (Metabolon, Durham, NC, USA). Compounds were identified by comparison with library entries of purified standards or recurrent unknown entities.

For `O=C1Cc2ccccc2N1` [indolin-2-one], the “Fold of Change KO/WT” value is listed as 1.51, the “Mean value KO” value is recorded as 1.20 and the “Mean value WT” value is given as “.797”.

Regarding `OC[C@H]1O[C@@H](n2cnc3c(O)ncnc32)[C@H](O)[C@@H]1O` [inosine], the “Fold of Change KO/WT” value was 2.07, the “Mean value KO” value is 1.49 and the “Mean value WT” value was “.719”.

`CC(C)C(=O)O[C@H](CC(=O)[O-])C[N+](C)(C)C` [isobutyrylcarnitine (C4)]: the “Fold of Change KO/WT” value worked out at 1.40, the “Mean value KO” value was 1.15 and the “Mean value WT” value is “.817”.

For `CC(C)CCC(=O)NCC(=O)O` [isocaproylglycine], the “Fold of Change KO/WT” value was 1.57, the “Mean value KO” value is 1.28 and the “Mean value WT” value was “.815”.

`O=C1CC(C(=O)O)C(C(=O)O)O1` (stereo not drawn) [isocitric lactone]: the “Fold of Change KO/WT” value came out at 1.22, the “Mean value KO” value turned out to be 1.08 and the “Mean value WT” value is reported as “.884”.

For the molecule `C[C@H](CCC(=O)O)[C@H]1CC[C@H]2[C@@H]3C[C@H](O)[C@@H]4C[C@@H](O)CC[C@]4(C)[C@H]3CC[C@]12C` [isohyodeoxycholate], the “Fold of Change KO/WT” value is recorded as 2.46, the “Mean value KO” value was 0.940 and the “Mean value WT” value is on record as “.382”.

Regarding `CCCCC/C=C\C/C=C\CCCCCCCC(N)=O` [linoleamide (18:2n6)], the “Fold of Change KO/WT” value worked out at 1.36, the “Mean value KO” value was 1.29 and the “Mean value WT” value is “.945”.

In the case of `CCCCC/C=C\C/C=C\CCCCCCCC(=O)O[C@H](CC(=O)[O-])C[N+](C)(C)C` [linoleoylcarnitine (C18:2)], the “Fold of Change KO/WT” value worked out at 1.62, the “Mean value KO” value worked out at 1.36 and the “Mean value WT” value was “.838”.

In the case of `CCCCCCCCCCCCCCCCC(N)=O` [margaramide (17:0)], the “Fold of Change KO/WT” value came to 1.45, the “Mean value KO” value is on record as 1.19 and the “Mean value WT” value was “.826”.

For `CCCCCCCCCCCCCCCCC(=O)OC(CC(=O)[O-])C[N+](C)(C)C` (stereo not drawn) [margaroylcarnitine (C17)], the “Fold of Change KO/WT” value was determined as 1.59, the “Mean value KO” value came out at 1.21 and the “Mean value WT” value was “.764”.

For the molecule `COP(=O)(O)O` [methylphosphate], the “Fold of Change KO/WT” value is on record as 1.27, the “Mean value KO” value was found to be 1.08 and the “Mean value WT” value is on record as “.848”.

Consider `CC(O)(CCO)CC(=O)O` (stereo not drawn) [mevalonate], for which the “Fold of Change KO/WT” value is listed as 1.24, the “Mean value KO” value is on record as 1.15 and the “Mean value WT” value is reported as “.925”.

For the molecule `CCCCCCCCCCCCCC(=O)O[C@H](CC(=O)[O-])C[N+](C)(C)C` [myristoylcarnitine (C14)], the “Fold of Change KO/WT” value was determined as 1.39, the “Mean value KO” value was 1.26 and the “Mean value WT” value is “.904”.

For the molecule `O=C(O)CCCCCCCCCCCCCCCCCC(=O)O` [nonadecanedioate (C19-DC)], the “Fold of Change KO/WT” value amounted to 1.44, the “Mean value KO” value came out at 1.30 and the “Mean value WT” value was “.902”.

As for `O=C(O)CCCCCCCCCCCCCCCCC(=O)O` [octadecanedioate (C18-DC)], the “Fold of Change KO/WT” value was found to be 1.38, the “Mean value KO” value worked out at 1.27 and the “Mean value WT” value is “.916”.

In the case of `C[N+](C)(C)CC(CC(=O)[O-])OC(=O)CCCCCCCCCCCCCCCCC(=O)O` (stereo not drawn) [octadecanedioylcarnitine (C18-DC)], the “Fold of Change KO/WT” value was found to be 1.16, the “Mean value KO” value was 1.00 and the “Mean value WT” value is listed as “.860”.

For the molecule `CCCCCCCC(=O)O[C@H](CC(=O)O)C[N+](C)(C)C` [octanoylcarnitine (C8)], the “Fold of Change KO/WT” value is listed as 1.62, the “Mean value KO” value was found to be 1.47 and the “Mean value WT” value is given as “.910”.

As to `CCCCCCCC/C=C\CCCCCCCC(N)=O` [oleamide], the “Fold of Change KO/WT” value was found to be 1.38, the “Mean value KO” value was found to be 1.22 and the “Mean value WT” value is recorded as “.886”.

For the molecule `CCCCCCCC/C=C\CCCCCCCC(=O)O[C@H](CC(=O)[O-])C[N+](C)(C)C` [oleoylcarnitine (C18:1)], the “Fold of Change KO/WT” value worked out at 1.56, the “Mean value KO” value was found to be 1.40 and the “Mean value WT” value is reported as “.900”.

On to `Cc1ccc(O[C@@H]2O[C@H](C(=O)O)[C@@H](O)[C@H](O)[C@H]2O)cc1` [p-cresol glucuronide], for which the “Fold of Change KO/WT” value is listed as 11.8, the “Mean value KO” value worked out at 5.92 and the “Mean value WT” value is listed as “.503”.

With `Cc1ccc(OS(=O)(=O)O)cc1` [p-cresol sulfate], the “Fold of Change KO/WT” value is on record as 9.29, the “Mean value KO” value was found to be 4.66 and the “Mean value WT” value was “.501”.

`CCCCCCCCCCCCCCCC(N)=O` [palmitamide (16:0)]: the “Fold of Change KO/WT” value is listed as 1.40, the “Mean value KO” value turned out to be 1.18 and the “Mean value WT” value is “.840”.

Take `CCCCCCC=CCCCCCCCC(=O)OC(CC(=O)[O-])C[N+](C)(C)C` (stereo not drawn) [palmitoleoylcarnitine (C16:1)]: the “Fold of Change KO/WT” value was determined as 1.63, the “Mean value KO” value was 1.54 and the “Mean value WT” value is reported as “.943”.

For `CCCCCCCCCCCCCCC(=O)O[C@H](CC(=O)[O-])C[N+](C)(C)C` [pentadecanoylcarnitine (C15)], the “Fold of Change KO/WT” value came out at 1.77, the “Mean value KO” value is 1.28 and the “Mean value WT” value is reported as “.723”.

With `O=C(O)[C@H]1O[C@@H](Oc2ccccc2)[C@H](O)[C@@H](O)[C@@H]1O` [phenol glucuronide], the “Fold of Change KO/WT” value was 1.87, the “Mean value KO” value worked out at 1.28 and the “Mean value WT” value is “.684”.

`O=S(=O)(O)Oc1ccccc1` [phenol sulfate]: the “Fold of Change KO/WT” value is given as 1.40, the “Mean value KO” value is listed as 1.23 and the “Mean value WT” value is “.879”.

On to `O=C(O)CC[C@H](NC(=O)Cc1ccccc1)C(=O)O` [phenylacetylglutamate], for which the “Fold of Change KO/WT” value was found to be 1.46, the “Mean value KO” value was 1.24 and the “Mean value WT” value is “.850”.

`O=C(O)CNC(=O)CCc1ccccc1` [phenylpropionylglycine]: the “Fold of Change KO/WT” value is 2.41, the “Mean value KO” value came to 1.58 and the “Mean value WT” value is on record as “.656”.

Regarding `O=C(O)C1CCCCN1` (stereo not drawn) [pipecolate], the “Fold of Change KO/WT” value turned out to be 1.12, the “Mean value KO” value was 1.05 and the “Mean value WT” value was “.938”.

`Cc1ncc(CO)c(C=O)c1O` [pyridoxal]: the “Fold of Change KO/WT” value is 1.47, the “Mean value KO” value is 1.28 and the “Mean value WT” value is given as “.868”.

For the molecule `Cc1ncc(CO)c(CN)c1O` [pyridoxamine], the “Fold of Change KO/WT” value stood at 1.77, the “Mean value KO” value turned out to be 1.42 and the “Mean value WT” value is listed as “.805”.

As to `Cc1ncc(CO)c(C(=O)O)c1O` [pyridoxate], the “Fold of Change KO/WT” value worked out at 1.34, the “Mean value KO” value turned out to be 1.21 and the “Mean value WT” value was “.902”.

Turning to `O=C(O)CCCCCCCCC(=O)O` [sebacate (C10-DC)], the “Fold of Change KO/WT” value was 1.44, the “Mean value KO” value came to 1.20 and the “Mean value WT” value is listed as “.833”.

For `CCCCCCCCCCCCCCCCCC(N)=O` [stearamide (18:0)], the “Fold of Change KO/WT” value was 1.49, the “Mean value KO” value came to 1.19 and the “Mean value WT” value is reported as “.800”.

`C[C@H](CCC(=O)NCCS(=O)(=O)O)[C@H]1CC[C@H]2[C@@H]3CC[C@@H]4C[C@H](O)CC[C@]4(C)[C@H]3C[C@H](O)[C@]12C` [taurodeoxycholate]: the “Fold of Change KO/WT” value is recorded as 3.45, the “Mean value KO” value is on record as 1.82 and the “Mean value WT” value was “.528”.

Regarding `C[C@H](CCC(=O)NCCS(=O)(=O)O)[C@H]1CC[C@H]2[C@@H]3CC[C@@H]4C[C@H](OS(=O)(=O)O)CC[C@]4(C)[C@H]3C[C@H](O)[C@]12C` [taurodeoxycholic acid 3-sulfate], the “Fold of Change KO/WT” value was determined as 1.58, the “Mean value KO” value worked out at 1.10 and the “Mean value WT” value was “.694”.

As for `C[C@H](CCC(=O)NCCS(=O)(=O)O)[C@H]1CC[C@H]2[C@@H]3CC[C@@H]4C[C@H](OS(=O)(=O)O)CC[C@]4(C)[C@H]3CC[C@]12C` [taurolithocholate 3-sulfate], the “Fold of Change KO/WT” value came out at 2.25, the “Mean value KO” value is reported as 0.960 and the “Mean value WT” value is “.425”.

On to `O=C(O)CCCCCCCCCCCCC(=O)O` [tetradecanedioate (C14-DC)], for which the “Fold of Change KO/WT” value is given as 4.27, the “Mean value KO” value was 1.96 and the “Mean value WT” value was “.459”.

As for `C/C=C(\C)C(=O)NCC(=O)O` [tigloylglycine], the “Fold of Change KO/WT” value was found to be 1.38, the “Mean value KO” value was 1.22 and the “Mean value WT” value is given as “.883”.
